Experimental data: patent US11572365B2, “Crystal form of upadacitinib, preparation method therefor, and use thereof” (CRYSTAL PHARMACEUTICAL (SUZHOU) CO., LTD., priority 2021, dated 2023)
≈ marks a conversion by molar mass, not a printed value.

What was measured:
Assay type in all cases: physicochemical
[1] = Kinetic solubility in FeSSIF, FaSSIF and pH 7.4 PBS (HPLC); conditions: for solubility at 24 h / solubility at 48 h: thermodynamic from solid
Method: The method parameters of kinetic solubility test in the present disclosure are as follows:
(§1) Approximately 15-30 mg of Form CSVI in the present disclosure was suspended into 1.8 mL of FeSSIF, 1.8 mL of FaSSIF and 1.8 mL of pH=7.4 PBS. After equilibration for 24 hours and 48 hours, the concentration of upadacitinib in saturated solutions were tested by HPLC and the results are listed in Table 2.
as §1, with “CSVII” for “CSVI”, “was” for “were”, “5.” for “2.”

[2] = Stability of drug substance on storage (XRPD crystalline form, HPLC purity); conditions: for Chemical purity during storage: storage conditions of the stability test
Method: The method parameters for related substances test in the present disclosure are as follows:
(§2) Approximately 5 mg of Form CSVI in the present disclosure was stored under 40° C./75% RH and 60° C./75% RH conditions. The purity and crystalline form were tested before and after storage by HPLC and XRPD. The results are listed in Table 3 and the XRPD overlay is substantially as depicted in FIG. 4.
as §2, with “CSVII” for “CSVI”, “under 25° C./60% RH,” for “under”, “6” for “3”, “10.” for “4.”

[3] = DVS humidity cycle 0% RH-95% RH-0% RH, crystalline form by XRPD; conditions: XRPD before and after
Method: Dynamic Vapor Sorption (DVS) is measured via an SMS (Surface Measurement Systems Ltd.) intrinsic DVS instrument. Its control software is DVS-Intrinsic control software. Typical parameters for DVS test are as follows: • Temperature: 25° C. • Gas and flow rate: N2, 200 mL/min • RH range: 0% RH to 95% RH
It can be seen that Form CSVI has good stability under accelerated conditions. Form CSVI is stable for at least 1 month under 60° C./75% RH (sealed) condition. It can be seen that Form CSVI has good stability under more stressed condition as well. Approximately 10 mg of Form CSVI in the present disclosure underwent a humidity cycle of 0% RH-95% RH-0% RH with a dynamic vapor sorption (DVS) analyzer.
Approximately 10 mg of Form CSVII in the present disclosure underwent a humidity cycle of 0% RH-95% RH-0% RH with a dynamic vapor sorption (DVS) analyzer.

[4] = Crystalline form before and after formulation process (XRPD)
[5] = 40° C./75% RH, Sealed, 6 months
[6] = 25° C./60% RH, Sealed, 6 months

Compound: CC[C@@H]1CN(C(=O)NCC(F)(F)F)C[C@@H]1c1cnc2cnc3[nH]ccc3n12 [Form CSVI, (3S,4R)-3-ethyl-4-(3H-imidazo[1,2-a]pyrrolo[2,3-e]pyrazin-8-yl)-N-(2,2,2-trifluoroethyl) pyrrolidine-1-carboxamide]
- solubility at 24 h ([1]; FaSSIF, 37 °C, pH 6.5, fassif, FaSSIF (pH 6.5, 37° C.), 24 hours): 1870 µg/mL (≈ 4.92 mM)
- solubility at 48 h ([1]; FaSSIF, 37 °C, pH 6.5, fassif, FaSSIF (pH 6.5, 37° C.), 48 hours): 1710 µg/mL (≈ 4.5 mM)
- solubility at 24 h ([1]; FeSSIF, 37 °C, pH 5, fessif, FeSSIF (pH 5.0, 37° C.), 24 hours): 2200 µg/mL (≈ 5.78 mM)
- solubility at 48 h ([1]; FeSSIF, 37 °C, pH 5, fessif, FeSSIF (pH 5.0, 37° C.), 48 hours): 2220 µg/mL (≈ 5.84 mM)
- solubility at 24 h ([1]; PBS, 25 °C, pH 7.4, aqueous buffer, pH 7.4, 25° C., 24 hours): 880 µg/mL (≈ 2.31 mM)
- solubility at 48 h ([1]; PBS, 25 °C, pH 7.4, aqueous buffer, pH 7.4, 25° C., 48 hours): 850 µg/mL (≈ 2.23 mM)
- Time for which the form is stable (crystalline state unchanged) ([2]; 40° C./75% RH (open)): at least 6 months
- Time for which the form is stable (crystalline state unchanged) ([2]; 40° C./75% RH (sealed)): at least 6 months
- Purity ([2]; 40° C./75% RH, Open, 6 months): 99.89%
- Solid form ([2]; 40° C./75% RH, Open, 6 months): Form CSVI
- Purity [2, 5]: 99.92%
- Solid form [2, 5]: Form CSVI
- Time for which the form is stable (crystalline state unchanged) ([2]; 60° C./75% RH (sealed)): at least 1 month
- Purity ([2]; 60° C./75% RH, Sealed, 1 month): 99.91%
- Solid form ([2]; 60° C./75% RH, Sealed, 1 month): Form CSVI
- Purity ([2]; Initial): 99.89%
- Solid form ([2]; Initial): Form CSVI
- Chemical purity during storage [2]: above 99.8%
- Form change after DVS test [3]: no form change is observed
- Physical stability after formulation procedure [4]: physically stable

Compound: CC[C@@H]1CN(C(=O)NCC(F)(F)F)C[C@@H]1c1cnc2cnc3[nH]ccc3n12 [Form CSVII, (3S,4R)-3-ethyl-4-(3H-imidazo[1,2-a]pyrrolo[2,3-e]pyrazin-8-yl)-N-(2,2,2-trifluoroethyl) pyrrolidine-1-carboxamide]
- Solubility ([1]; FaSSIF (pH 6.5, 37° C.), 24 hours): 2020 µg/mL (≈ 5.31 mM)
- Solubility ([1]; FaSSIF (pH 6.5, 37° C.), 48 hours): 2170 µg/mL (≈ 5.7 mM)
- Solubility ([1]; FeSSIF (pH 5.0, 37° C.), 24 hours): 2280 µg/mL (≈ 5.99 mM)
- Solubility ([1]; FeSSIF (pH 5.0, 37° C.), 48 hours): 2470 µg/mL (≈ 6.49 mM)
- Solubility ([1]; pH 7.4, 25° C., 24 hours): 920 µg/mL (≈ 2.42 mM)
- Solubility ([1]; pH 7.4, 25° C., 48 hours): 850 µg/mL (≈ 2.23 mM)
- Purity ([2]; 25° C./60% RH, Open, 6 months): 99.91%
- Solid form ([2]; 25° C./60% RH, Open, 6 months): Form CSVII
- Purity [2, 6]: 99.92%
- Solid form [2, 6]: Form CSVII
- Purity [2, 5]: 99.92%
- Solid form [2, 5]: Form CSVII
- Purity ([2]; 60° C./75% RH, Sealed, 1 month): 99.92%
- Solid form ([2]; 60° C./75% RH, Sealed, 1 month): Form CSVII
- Purity ([2]; Initial): 99.92%
- Solid form ([2]; Initial): Form CSVII
- Chemical purity during storage [2]: above 99.9%
- Form change after DVS test [3]: no form change is observed
- Physical stability after formulation procedure [4]: physically stable
